This note sets out measurements from PubChem BioAssay (NCI).

What all share (assay): NCI tumour cell line growth inhibition, 48 h
Assay [1] has as its system DLD-1 colon.
Assay [2] relates to DMS 273 small cell lung.
In assay [3] the test system is HOP-18 NSCLC.
The test system of assay [4] is KM20L2 colon.
Assay [5] concerns LXFL 529 NSCLC.
In assay [6] the test system is M19-MEL melanoma.
The subject of assay [7] is XF 498 CNS.
Assay [8] concerns RXF-631 renal.
Assay [9] relates to MDA-N.
The test system of assay [10] is P388 leukemia.
The subject of assay [11] is P388/ADR leukemia.
Assay [12] deals with SN12K1 renal.

Each structure is given as a SMILES string. Where “and” joins values, the source holds several entries; their conditions need not be identical. Equal values may be shown once.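 In this assay, cells in 96-well plates receive the compound at five concentrations for 48 hours. Endpoints are linearly interpolated between the surrounding concentrations. Abbreviation: GI50, concentration required for 50% inhibition of growth. TGI: concentration producing complete growth inhibition.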 A value given as a limit tells only on which side of the number the result lay.

For the molecule `CC(C)(C)C1CCC(O)(c2ccccc2)CC1` (stereo not given), the TGI in assay [1] was > 100 µM and 75.5 µM; in assay [2], > 100 µM and 33.6 µM; in assay [3], greater than 100 µM; in assay [4], > 100 µM and 31.7 µM; in assay [5], > 100 µM and 49.2 µM; in [6] it was > 100 µM and 41.6 µM. In assay [7], this molecule had a TGI of 22.9 µM.

As for `COc1ccc2cc3n(c(=O)c2c1)CCc1c-3cc(OC)c(OC)c1OC`, the TGI in [1], in assay [2], in [3], in [4], in [5] and in assay [6] was greater than 100 µM each time. This molecule also had a TGI in [7] greater than 100 µM.

As to `CN(C)c1ccc(/C=c2/sc3nc(=O)c(-c4ccccc4NC(=O)C(F)(F)F)nn3c2=O)cc1`, the TGI in assay [1], in assay [2], in assay [5], in assay [6] and in [7] was greater than 100 µM in each case.

In the case of `CC(C)(C)c1ccc(OCCOCCOc2ccc(C(C)(C)C)cc2S(N)(=O)=O)c(S(N)(=O)=O)c1`, the TGI in assay [1], in [2], in assay [3], in assay [6] and in assay [8] was greater than 100 µM each time.

With `ON1CCc2c([nH]c3ccccc23)C1c1ccc(Cl)cc1` (stereo not given), the TGI in [1] was greater than 100 µM; in assay [2] it was 97.4 µM; in assay [4], 77.5 µM; in assay [5], greater than 100 µM; in assay [6], greater than 100 µM; in assay [7] it was 57.6 µM.

As to `O=C1NC(=O)C2C3C=CC(C12)C1C2C(=O)NC(=O)C2C31` (stereo not given), the GI50 in assay [1] is 39 µM; in assay [3], greater than 63.3 µM; in assay [6], 98.2 µM; in assay [9], 193 µM. For the same molecule, the TGI in [1] is 250 µM; in assay [2] it was 250 µM; in [3], 98.8 µM and 250 µM; in assay [4] it was 250 µM; in [6], 250 µM; in assay [9], 250 µM and > 1000 µM. Moreover, the TGI in assay [10] was 228 µM; in [11] it was 250 µM; in assay [12], 250 µM; in assay [7], 244 µM.

In the case of `CNS(=O)(=O)NNS(=O)(=O)c1ccc(C)cc1`, the TGI in assay [1], in [4] and in assay [6] was greater than 100 µM throughout.

With `CN(C)c1ccc(/C=C2\CCc3ccccc3C2=O)cc1Br`, the TGI in assay [1], in [2], in assay [3], in assay [4], in assay [5] and in assay [6] was greater than 100 µM each time. For the same molecule, the TGI in assay [7] is greater than 100 µM.

Turning to `O=c1c2cc(Br)ccc2nc(CNc2ccccc2)n1-c1ccccc1`, the TGI was 21.6 µM in [1]; greater than 100 µM in assay [2]; greater than 53.3 µM in [3]; greater than 100 µM in assay [4]; 36.9 µM in assay [5]; 29.7 µM in [6]. Also, the TGI in assay [7] was determined as 29.1 µM.

Take `CCC12C=C(C(=O)OC)N3c4ccccc4C4CCN(CCC1)C2C43` (stereo not given): the TGI was greater than 100 µM in assay [1]; greater than 100 µM in assay [2]; greater than 100 µM in [3]; 56.7 µM in [4]; greater than 100 µM in assay [5]; greater than 100 µM in [6].

`O=C1NC(c2ccccc2Cl)Nc2ccccc21` (stereo not given) yielded a TGI in assay [9] of 3.29 µM.

For `C=C(C)c1nc(Oc2ccccc2)nc(Oc2ccccc2)n1`, the TGI in [1] was 6.62 µM; in assay [2] it was 19.7 µM; in assay [3], 30.2 µM; in assay [4] it was 26.7 µM; in assay [5], 3.88 µM; in [6], 7.93 µM. Further, the TGI in assay [9] came to 14.8 µM; in assay [10], 3.63 µM; in assay [11], 2.7 µM; in [8] it was 13.5 µM; in assay [12] it was 8.88 µM; in [7], 13 µM.

Regarding `N#CC1(CCCCl)CCCCC1`, the TGI in assay [1], in assay [2], in [3], in [4], in [5] and in assay [6] was greater than 100 µM each time. Besides, the TGI in assay [8] and in [7] was greater than 100 µM each time.

Regarding `CCCCC(C(=O)C(=O)Nc1ccccc1CC)C(=O)C(C)C` (stereo not given), the TGI in assay [1], in assay [2], in assay [4], in assay [5], in assay [6] and in [8] was greater than 100 µM each time. This molecule also showed a TGI in [7] greater than 100 µM.

For `Nc1ccccc1C(=O)/C=C/c1ccccc1O`, the TGI in assay [1], in assay [3], in assay [4], in [5], in [6] and in assay [8] was greater than 100 µM each time. The same molecule yielded a TGI in assay [7] greater than 100 µM.

Turning to `O=C1c2ccccc2C2(O)N(c3ccccc3)C(=S)N(c3ccccc3)C12O` (stereo not given), the TGI in assay [1], in [2], in assay [3], in assay [4], in assay [5] and in [6] was greater than 100 µM in each case. This molecule also showed a TGI in assay [8] greater than 100 µM.

On to `CC(C)CCCC(C)C1CCC2C3CC([N+](=O)[O-])=C4CC(O)CCC4(C)C3CCC12C` (stereo not given), for which the TGI stood at 35.9 µM in assay [1]; 27.2 µM in [2]; 34.7 µM in assay [4]; 32.9 µM in assay [5]; 73.3 µM in assay [6]; 37.1 µM in assay [7].
